What was measured:
[1] = target: T1, human Cat K (Homo sapiens, UniProt P43235); details: human Cat K vs other human cathepsins; cited from earlier work
T1 sequence (P43235 115-329): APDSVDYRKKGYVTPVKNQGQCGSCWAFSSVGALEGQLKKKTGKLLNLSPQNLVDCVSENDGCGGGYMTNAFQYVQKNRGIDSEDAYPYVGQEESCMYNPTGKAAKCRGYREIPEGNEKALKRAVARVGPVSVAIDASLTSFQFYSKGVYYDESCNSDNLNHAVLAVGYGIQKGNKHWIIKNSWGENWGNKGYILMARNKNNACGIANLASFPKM

[2] = Rhesus IV Pharmacokinetics; type: in vivo, rhesus monkeys; details: for % AUC Extrap. / AUC(0-inf) / C0 / AUC / clearance / Vd / half-life: male rhesus monkeys; for concentration at 0.5 h: 0.50 hours; for AUC: read-out: AUC(0-x); for clearance: read-out: Cl (plasma clearance); for Vd: read-out: Vdss; for half-life: read-out: t½ (converted)
Procedure: The study was conducted in male rhesus monkeys (n=4) via the intravenous route using a deuteriated (D6-Odanacatib, or D6-ODN) and non-deuteriated (D0-Odanacatib, or D0-ODN) forms of odanacatib. The dosing solution was prepared in DMSO at a concentration of 7.5 mg/mL and the dose volume was 0.1 mL/kg. Each monkey was administered a 0.75 mg/kg dose each of D6-ODN and D0-ODN as a mixture. Animals were fasted overnight prior to dosing. The dose was administered via the saphenous vein. […] Plasma was stored at −70° C. until analysis.
The lower limit of quantitation was 0.48 nM.
Pharmacokinetic parameters were obtained using non-compartmental methods (Watson®). The plasma clearance (CLP) was calculated as the IV dose divided by the area under the plasma concentration versus time curve (AUC0-∞). AUC was determined using logarithmic trapezoidal interpolation.

[3] = rhesus monkey, in vivo, po, 2.5 mg/kg
[4] = rhesus monkey, plasma, male rhesus monkeys n=4, 0.75 mg/kg IV
[5] = rhesus monkey, plasma, 0.75 mg/kg IV

SMILES | % AUC Extrap. ([2]; 0.75 mg/kg IV) | concentration at 0.08 h [2, 4] | concentration at 0.25 h [2, 4] | concentration at 0.5 h [2, 4] | concentration at 1 h [2, 4] | concentration at 4 h [2, 4] | concentration at 8 h [2, 4] | concentration at 12 h [2, 4] | concentration at 24 h [2, 4] | concentration at 30 h [2, 4] | concentration at 48 h [2, 4] | AUC(0-inf) [2, 5] | C0 [2, 5] | AUC [2, 5] | clearance [2, 5] | Vd [2, 5] | half-life [2, 5] | also measured
CC(C)(F)C[C@H](N[C@@H](c1ccc(-c2ccc(S(C)(=O)=O)cc2)cc1)C(F)(F)F)C(=O)NC1(C#N)CC1 [Example D0-ODN, N^1-(1-cyanocyclopropyl)-4-fluoro-N^2-{(1S)-2,2,2-trifluoro-1-[4′-(methylsulfonyl)-1,1′-biphenyl-4-yl]ethyl}-L-leucinamide, reference compound] | 0.25% | 1020 nM | 947 nM | 872 nM | 854 nM | 462 nM | 250 nM | 130 nM | 14.5 nM | 6.22 nM | 1.22 nM | 5.73 µM·h | 1080 nM | 5.71 µM·h | 4.6 mL/min/kg | 1.9 L/kg | 3.7 h | selectivity against all other known human cathepsins [1]: ≥ 300 fold
[2H]C([2H])([2H])C(F)(C[C@H](N[C@@H](c1ccc(-c2ccc(S(C)(=O)=O)cc2)cc1)C(F)(F)F)C(=O)NC1(C#N)CC1)C([2H])([2H])[2H] [Example D6-ODN, (2S)—N-(1-cyanocyclopropyl)-5,5,5-trideuterio-4-fluoro-4-(trideuteriomethyl)-2-[[(1S)-2,2,2-trifluoro-1-[4-(4-methylsulfonylphenyl)phenyl]ethyl]amino]pentanamide] | 1.7% | 894 nM | 839 nM | 793 nM | 831 nM | 633 nM | 633 nM | 515 nM | 273 nM | 208 nM | 70.7 nM | 18 µM·h | 933 nM | 17.7 µM·h | 1.4 mL/min/kg | 1.7 L/kg | 16 h | concentration at 72 h ([2]; rhesus monkey, plasma, male rhesus monkeys n=4, 0.75 mg/kg IV, 72.00 hours): 28.4 nM; concentration at 96 h ([2]; rhesus monkey, plasma, male rhesus monkeys n=4, 0.75 mg/kg IV, 96.00 hours): 13.8 nM; higher exposure compared to D0-ODN ([2]; rhesus monkeys, 0.75 mg/kg IV): 3 fold; longer half-life compared to D0-ODN ([2]; rhesus monkeys, 0.75 mg/kg IV): 4 fold; lower clearance compared to D0-ODN ([2]; rhesus monkeys, 0.75 mg/kg IV): 3 fold; increase in plasma elimination half-life of ODN by deuterium substitution [3]: about 2.5 fold

Reference: patent publication US8791162B2, “Cathepsin cysteine protease inhibitors” (Merck Sharp & Dohme Corp., priority 2011, dated 2014)
